{"source": "paper PMC5431889", "about": "“Stapled BIG3 helical peptide ERAP potentiates anti-tumour activity for breast cancer therapeutics” (Scientific Reports, 2017)", "key": {"[1]": {"test_system": "MCF-7 cells", "type": "cell-based, human", "settings": "96 h", "description": "After […] ERAP). Microarray analysis. […]"}, "[2]": {"assay": "Circular dichroism, α-helical content", "type": "physicochemical", "settings": "CD 185-265 nm, 25 °C, 50 μg mL−1 in 10 mM sodium phosphate buffer pH 7.0", "experimental": "CD spectrum in the range of 185 to 265 nm was recorded at 25 °C in a 2 mm-path quartz cuvette. Protein concentration was 50 μg mL^−1 in 10 mM sodium phosphate buffer (pH 7.0). Molar ellipticity [θ] was calculated."}, "[3]": {"test_system": "KPL-3C orthotropic breast cancer xenografts", "assay": "In vivo tumour growth inhibition, KPL-3C orthotopic xenografts", "design": "species or system mice", "settings": "intraperitoneal, E2 6 μg per day, n = 5", "experimental": "KPL-3C cell suspensions (1 × 10^7 cells per mouse) were mixed with an equal volume of Matrigel (Corning) and injected (200 μL total) into the mammary fat pads of 6-week-old female BALB/c nude mice (Charles River Laboratories). The mice were housed in a pathogen-free isolation facility with a 12 h light/dark cycle and were fed rodent chow and water ad libitum. The tumours developed over a period of a few days, reaching sizes of approximately 100 mm^3 [calculated as 1/2 × (width × length^2)], upon injection of 6 μg per day of E2 solution to the neck skin. For intraperitoneal administration, the mice were randomized into 10 treatment groups (five animals per group): (1) no treatment; (2) 6 μg per day E2; (3) E2 + 1.4 mg kg^−1 day^−1 ERAP daily; (4) E2 + 1.4 mg kg^−1 day^−1 ERAP every 4 days; (5) E2 + 14 mg kg^−1 day^−1 ERAP daily; (6) E2 + 14 mg kg^−1 day^−1 ERAP every 4 days; (7) E2 + 1.4 mg kg^−1 day^−1 stERAP-6 daily; (8) E2 + 1.4 mg kg^−1 day^−1 stERAP-6 every 4 days; (9) E2 + 14 mg kg^−1 day^−1 stERAP-6 daily; and 10() E2 + 14 mg kg^−1 day^−1 stERAP-6 every 4 days. For intravenous administration, the mice were randomized into 10 treatment groups (five animals per group): (1) no treatment; (2) 6 μg per day E2; (3) E2 + 0.1 mg kg^−1 day^−1 stERAP-6 daily; (4) E2 + 1 mg kg^−1 day^−1 stERAP-6 daily; (5) E2 + 10 mg kg^−1 day^−1 stERAP-6 daily; (6) E2 + 0.1 mg kg^−1 day^−1 stERAP-6 weekly; (7) E2 + 1 mg kg^−1 day^−1 stERAP-6 weekly; (8) E2 + 10 mg kg^−1 day^−1 stERAP-6 weekly; (9) E2 + 1 mg kg^−1 day^−1 alanine-mutant stERAP-6 daily; and (10) E2 + 10 mg kg^−1 day^−1 alanine-mutant stERAP-6 daily. E2 was delivered via the application of a solution to the neck skin as previously noted.\nThe tumour volume was measured with calipers, after which time the mice were sacrificed and tumours excised. TGI was calculated according to the formula: [1 − (T − T0)/(C − C0)] × 100, where T and T0 are the mean tumour volumes at day 28 or 35 and day 1, respectively, for the experimental group, and C and C0 are those for the E2-treated group. The organs (heart, lung, liver, kidney, pancreas, and brain) were also immediately removed. A portion of each tissue was fixed in 10% neutral formalin for histological examination, while the remaining tissue sample was frozen and preserved at −80 °C for subsequent western blot analysis. All the experiments were performed in accordance with the guidelines of the animal care and use facility at Tokushima University."}, "[4]": {"test_system": "TAM-R MCF-7 cells", "assay": "MTT assay, tamoxifen-resistant (TAM-R) MCF-7 cell growth", "type": "cell-based, human", "settings": "10 nM E2 and 1 μM tamoxifen, single treatment at 0 h, up to 96 h; three independent experiments", "quoted_text": "(a) MTT assays evaluating the inhibitory effect of unstapled, original ERAP (left) and stERAP-6 (right) on the growth of tamoxifen-resistant (TAM-R) MCF-7 cells. TAM-R MCF-7 cells were treated with unstapled original ERAP or stERAP-6 in the presence of 10 nM E2 and 1 μM tamoxifen (TAM) at 0 h. The data represent the mean ± s.d. of three independent experiments."}, "[5]": {"test_system": "BIG3-PHB2 complex and ERα signalling in tumours", "assay": "Co-immunoprecipitation, RT-PCR and immunoblot analysis of excised KPL-3C tumours", "type": "in vivo, mice", "experimental": "Immunoblot analyses were performed as described previously. After SDS-PAGE, the membranes were blocked with 4% BlockAce solution (Dainippon Pharmaceutical) for 3 h and then incubated with antibodies against the following proteins: BIG3 (1:1,000)[10]; PHB2 (1:1,000, Abcam); Akt (1:1,000), phospho-Akt (S473) (587F11, 1:1,000); p44/42 MAPK (1:1,000), phospho-p44/42 MAPK (T202/Y204) (1:1,000); mTOR (1:1,000); phospho-mTOR (S2448) (1:1,000); S6K (1:1,000); phopho-S6K (T389) (1:1,000); α/β-tubulin (1:1,000) (Cell Signalling Technology); and LMNB1 (1:100, Sigma). After incubation with an HRP-conjugated secondary antibody (anti-mouse IgG-HRP, 1:5,000; anti-rat IgG-HRP; 1:5,000; or anti-rabbit IgG-HRP, 1:1,000; Santa Cruz Biotechnology) for 1 h, the blots were developed with an enhanced chemiluminescence (ECL) system (GE Healthcare) and scanned using an Image Reader LAS-3000 mini (Fujifilm). All the experiments were performed in triplicate at a minimum. Full-length images of immunoblots are shown in Supplementary Fig. S5. […]\nThe expression of the ERα target genes (TFF1 and CCND1) was evaluated by real-time RT-PCR as described previously. Each sample was normalized to the β 2-MG mRNA content, and the results were expressed as the fold increase over untreated cells (set at 1.0). […]\nThe tumour volume was measured with calipers, after which time the mice were sacrificed and tumours excised. […]"}, "[6]": {"test_system": "MCF-7 cells", "settings": "E2-dependent breast cancer cell growth; cited from earlier work", "experimental": "We previously developed a dominant-negative peptide, ER α activity-regulator synthetic peptide (ERAP), which specifically disrupts the BIG3-PHB2 interaction and inhibits multiple ERα-signalling pathways driving breast cancer cell growth by reactivating tumour-suppressive activity of PHB2[10]. […] However, its inhibitory effect was only maintained for 24 h, most likely due to its high susceptibility to proteolytic degradation."}, "[7]": {"test_system": "MCF-7 cells", "assay": "Cell cycle assay by flow cytometry (propidium iodide)", "type": "cell-based, human", "settings": "10 nM E2, 10 μM stERAP-6, 1 μM tamoxifen", "experimental": "Cells were fixed in cold 70% ethanol, incubated with 20 µg mL^−1 propidium iodide (Sigma) and 1 mg mL^−1 ribonuclease A (Sigma), and analysed by flow cytometry using a FACSCalibur with CellQuest software (BD)."}, "[8]": {"target": "prohibitin 2 (human (endogenous in MCF-7 and KPL-3C), UniProt Q99623 1-299)", "sequence (Q99623 whole entry)": "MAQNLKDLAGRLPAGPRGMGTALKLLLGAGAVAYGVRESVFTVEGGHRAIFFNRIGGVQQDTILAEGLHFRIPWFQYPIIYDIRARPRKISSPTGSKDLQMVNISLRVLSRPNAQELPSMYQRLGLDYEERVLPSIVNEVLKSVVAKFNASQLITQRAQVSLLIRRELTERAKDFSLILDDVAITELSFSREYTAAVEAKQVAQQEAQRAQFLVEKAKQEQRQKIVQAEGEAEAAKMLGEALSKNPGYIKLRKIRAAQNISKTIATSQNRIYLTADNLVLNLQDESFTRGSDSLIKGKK", "assay": "cell-based or functional assay"}, "[9]": {"target": "T1, His-tagged recombinant PHB2 (UniProt Q99623 1-299)", "T1 construct": "PHB2 (prohibitin 2), recombinant, His-tagged; also called His-PHB2; source: recombinant", "T1 sequence (Q99623 whole entry)": "as above", "assay": "SPR; Biacore 3000; recombinant PHB2 bound to a CM5 sensor chip, peptides as analytes at the indicated concentrations; BIAevaluation software", "settings": "both partners purified"}}, "note": "Where a SMILES comes first, the peptide text is derived from it.", "data": [{"molecule": "CSCC[C@H](NC(=O)[C@H](CCC(N)=O)NC(=O)CNC(=O)CNC(=O)CNC(=O)[C@H](CCCNC(=N)N)NC(=O)[C@H](CCCNC(=N)N)NC(=O)[C@H](CCCNC(=N)N)NC(=O)[C@H](CCCNC(=N)N)NC(=O)[C@H](CCCNC(=N)N)NC(=O)[C@H](CCCNC(=N)N)NC(=O)[C@H](CCCNC(=N)N)NC(=O)[C@H](CCCNC(=N)N)NC(=O)[C@H](CCCNC(=N)N)NC(=O)[C@H](CCCNC(=N)N)NC(=O)[C@@H](N)CCCNC(=N)N)C(=O)N[C@@H](CC(C)C)C(=O)N[C@@H](CO)C(=O)N[C@@H](CC(=O)O)C(=O)N[C@@H](CC(C)C)C(=O)N[C@H](C(=O)N[C@@H](CC(C)C)C(=O)N[C@@H](CCC(N)=O)C(=O)N[C@@H](CC(C)C)C(=O)N[C@@H](CCCNC(=N)N)C(=O)N[C@@H](CCC(N)=O)C(=O)N[C@@H](CCCNC(=N)N)C(=O)O)[C@@H](C)O", "note": "[ERAP] (H-RRRRRRRRRRRGGGQMLSDLTLQLRQR-OH; N-terminus and C-terminus assumed)", "values": [{"measurement": "IC50", "setting": "[1]", "result": 7.97, "unit": "µM"}, {"measurement": "α-helical content", "setting": "[2]", "result": 21.4, "unit": "%"}, {"measurement": "TGI on day 28", "setting": "[3]; 1.4 mg kg−1 every 4 days", "result": 36.9, "unit": "%"}, {"measurement": "TGI on day 28", "setting": "[3]; 1.4 mg kg−1 once a day for 28 days", "result": 94.2, "unit": "%"}, {"measurement": "TGI on day 28", "setting": "[3]; 14 mg kg−1 every 4 days", "result": 40.3, "unit": "%"}, {"measurement": "TGI on day 28", "setting": "[3]; 14 mg kg−1 once a day for 28 days", "result": 94.5, "unit": "%"}, {"measurement": "inhibition of growth of TAM-R MCF-7 cells", "setting": "[4]", "result": "reduced after 24 h treatment"}, {"measurement": "E2-induced expression of TFF1 and CCND1 and phosphorylation levels of Akt and MAPK in tumours", "setting": "[5]; intraperitoneal treatment every 4 days for 28 days", "result": "did not"}, {"measurement": "inhibition of endogenous BIG3-PHB2 complex formation in tumours", "setting": "[5]; intraperitoneal treatment every 4 days, co-immunoprecipitation", "result": "but not with unstapled original ERAP"}, {"measurement": "duration of inhibitory effect", "setting": "[6]", "result": 24, "unit": "h"}]}, {"molecule": "CC/C(=C(\\c1ccccc1)c1ccc(OCCN(C)C)cc1)c1ccccc1", "note": "[tamoxifen]", "values": [{"measurement": "apoptotic (sub-G1) cell population", "setting": "[7]", "result": 7.44, "unit": "%"}]}, {"molecule": "RRRRRRRRRRRGGGQMLSDLTLQLRQR (membrane-permeable polyarginine (11R) and GGG linker, printed as 11R-GGG; also called unstapled original ERAP; dominant-negative peptide; source: synthetic peptide)", "note": "[ERα activity-regulator synthetic peptide (native ERAP; 11R-GGG-QMLSDLTLQLRQR)]", "values": [{"measurement": "IC50 of E2-dependent MCF-7 cell growth at 96 h after a single treatment (MTT); the peptide blocks BIG3-PHB2", "setting": "[8]", "result": 7.97, "unit": "µM"}, {"measurement": "Kd", "setting": "[9]", "result": 12.8, "unit": "µM"}]}]}
